Key:
Details in all cases: 72 h
HL-60 [1] = system: HL-60
In short: (§1)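 The IC50 was derived from log-logistic dose–response fitting. Each of fifteen myeloid leukaemia cell lines, seeded in RPMI 1640 within its linear growth range, was exposed in 384-well plates to five tenfold doses (1 to 10,000 nM) in duplicate for 72 h at 37 °C and 5% CO2. Luminescent ATP viability readings were normalised to vehicle and to a positive control at 10 µM before four-parameter curve fitting.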

MV4-11 [2] = system: MV4-11
In short: as §1

KCL-22 [3] = system: KCL-22
In short: as §1

K-562 [4] = system: K-562
In short: as §1

ML-2 [5] = system: ML-2
In short: as §1

KG-1 [6] = system: KG-1
In short: as §1

LAMA-84 [7] = system: LAMA-84
In short: as §1

THP-1 [8] = system: THP-1
In short: as §1

NOMO-1 [9] = system: NOMO-1
In short: as §1

SHI-1 [10] = system: SHI-1
In short: as §1

MOLM-13 [11] = system: MOLM-13
In short: as §1

HEL [12] = system: HEL
In short: as §1

Mono-Mac-6 [13] = system: Mono-Mac-6
In short: as §1

KU-812 [14] = system: KU-812
In short: as §1

BV-173 [15] = system: BV-173
In short: as §1

HL-60 [16] = test: cell viability (% survival relative to DMSO control, bortezomib = 0%); higher = less cytotoxic
In short: (§2)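 Seeding density for each of the 10 AML and 5 CML cell lines was titrated to the linear growth range. Cells went into 384-well plates pre-printed in duplicate with compounds at 1, 10, 100, 1000 or 10000 nM and were held for 72 h at 37 °C with 5% CO2. CellTiter-Glo luminescence then provided the readout. Percent survival is expressed relative to vehicle at 100% and a 10 µM positive control at 0%, averaged over duplicates.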

MV4-11 [17] = test: as above
In short: as §2

KCL-22 [18] = test: as above
In short: as §2

K-562 [19] = test: as above
In short: as §2

ML-2 [20] = test: as above
In short: as §2

KG-1 [21] = test: as above
In short: as §2

LAMA-84 [22] = test: as above
In short: as §2

THP-1 [23] = test: as above
In short: as §2

NOMO-1 [24] = test: as above
In short: as §2

SHI-1 [25] = test: as above
In short: as §2

MOLM-13 [26] = test: as above
In short: as §2

HEL [27] = test: as above
In short: as §2

Mono-Mac-6 [28] = test: as above
In short: as §2

KU-812 [29] = test: as above
In short: as §2

BV-173 [30] = test: as above
In short: as §2

Cn1c2cc(S(C)=O)sc2c2cnn(Cc3cccc(N)c3)c(=O)c21 (stereo not given) [TEPP-46]
Details	IC50 (cell viability) [µM]
BV-173 [15]	> 10
HEL [12]	> 10
HL-60 [1]	> 10
K-562 [4]	> 10
KCL-22 [3]	> 10
KG-1 [6]	> 10
KU-812 [14]	> 10
LAMA-84 [7]	> 10
ML-2 [5]	> 10
MOLM-13 [11]	> 10
MV4-11 [2]	> 10
Mono-Mac-6 [13]	> 10
NOMO-1 [9]	> 10
SHI-1 [10]	> 10
THP-1 [8]	> 10

cell viability [%]
Details	1 nM	10 nM	100 nM	1000 nM	10000 nM
BV-173 [30]	108	84.1	102	106	76.8
HEL [27]	118	96.2	100	99.1	84
HL-60 [16]	104	81.9	98.8	113	105
K-562 [19]	112	92.1	101	111	81.8
KCL-22 [18]	109	96.8	97.2	111	87.8
KG-1 [21]	116	99.9	102	93.5	85.1
KU-812 [29]	94.7	102	98.5	107	74.4
LAMA-84 [22]	106	98.2	98.2	97.4	90.6
ML-2 [20]	116	98.9	102	108	91.7
MOLM-13 [26]	136	92.9	91.9	123	94.3
MV4-11 [17]	105	100	94.1	103	69.3
Mono-Mac-6 [28]	102	106	103	102	83
NOMO-1 [24]	104	92.6	102	99.8	93.3
SHI-1 [25]	125	101	105	96.5	95.3
THP-1 [23]	101	100	97.5	104	99.7

Reference: the supplement of paper PMC8671470
